{"source": "patent US6288091A", "about": "“Antiherpes virus compounds and methods for their preparation and use” (Boehringer Ingelheim Ltd., priority 1999, dated 2001)", "key": {"HSV-2 HG-52": {"test_system": "HSV-2 HG-52", "test": "Mouse genital model, vaginal HSV-2 infection, oral administration", "type": "in vivo, Swiss Webster mouse", "details": "Human alphaherpesvirus 2, 3 h, Group 1 Table 1 entries, commencing three hours post infection, read-out: ED50, reduction of viral pathology", "protocol": "Antiviral activity for Group 1 compounds was also observed in the mouse genital model of R. W. Sidwell et al., supra. Vaginal HSV-2 infection in the Swiss Webster mouse was initiated by vaginal irritation and instillation of HSV-2 (HSV-2 HG-52, 1×10^7 PFU). Viral pathology was measured as described above."}, "[1]": {"test_system": "HSV-1 acyclovir-resistant mutant strain PAA^r 5", "test": "Acyclovir-resistant HSV-1 cutaneous infection in immunodeficient nu/nu mice, strain PAAr 5", "type": "in vivo, female nu/nu mice", "protocol": "(§1) Animals were cutaneously inoculated with 10^7 PFU pf HSV-1 acyclovir resistant mutant viruses. The resulting cutaneous lesions were scored according to a subjective scoring system. The compound of Group 1 (Entry No. 29 in table 1) was administered orally (gavage) in an acidified vehicle (0.033 N aqueous HCl, tid for 10 days). Animals were similarly treated with acyclovir in 0.033 N aqueous HCl or only with the vehicle (0.033 N aqueous HCl). […] The dose-dependent effect of treatment with Entry No. 29 at 25 mg/kg/day (-.diamond-solid.-), 50 mg/kg/day (-.tangle-solidup.-), 75 mg/kg/day (-.quadrature.-), 100 mg/kg/day (-.circle-solid.-) or 125 mg/kg/day (-.box-solid.-), compared to treatment with vehicle alone (-.smallcircle.-), is shown in FIG. 2. The ED50 of Entry No. 29 was about 60 mg/kg/day. Similar experiments were done using the HSV-1 acyclovir-resistant mutant strain dlsptk (FIGS. 3 and 4). […] The dose-dependent effect of treatment with Entry No. 29 at 25 mg/kg/day (-.diamond-solid.-), 50 mg/kg/day (-.tangle-solidup.-), 75 mg/kg/day (-.quadrature.-), 100 mg/kg/day (-.circle-solid.-) or 125 mg/kg/day (-.box-solid.-), compared to treatment with vehicle alone (-.smallcircle.-), is shown in FIG. 4. […]"}, "[2]": {"test": "Inhibition of HCMV replication, ELISA assay (Hs-68 cells)", "type": "cell-based, Human Cytomegalovirus (HCMV)", "details": "human, read-out: Cytotoxic at this concentration (footnote *, ELISA CMV column)", "protocol": "(§2) C) Inhibition of Human Cytomegalovirus (HCMV) Replication\n(§3) The effect of compounds on the replication of HCMV has been measured by using an ELISA-based assay (ELISA) and a plaque reduction assay (PRA).\n(§4) Hs-68 cells (ATCC # CRL 1635) were seeded in 96 well microtiter plates at 10,000 cells/well in 100 μL of DMEM medium (Gibco Canada Inc.) supplemented with 10% fetal bovine serum (FBS, Gibco Canada Inc.). The plates were incubated for 3 days at 37° to allow the cells to reach 80-90% confluency prior to the assay.\n(§5) The medium was removed from wells by aspiration. The cells then were infected at a multiplicity of infection (MOI) of 0.01 PFU/cell with 50 μL of HCMV (strain AD169, ATCC VR-538) in DMEM medium supplemented with 5% heat inactivated FBS (assay medium). The virus was allowed to adsorb to cells for 2 h at 37°. Following viral adsorption, the medium was removed from the wells by aspiration. The cells were washed twice with 200 μL of assay medium to remove unabsorbed virus. The cells were then incubated with or without 100 μL of appropriate concentrations of test reagent in assay medium. After 8 days of incubation at 37°, the extent of viral replication was determined by an ELISA assay which detects the late structural protein p28 of HCMV.\n(§6) Eight days after infection, the medium was aspirated from the wells. Non-specific binding sites were blocked by adding 200 μL of phosphate buffered saline containing 1% (w/v) bovine serum albumin (blocking buffer) to each well and incubating the plates for 30 min at room temperature. After removal of the blocking buffer by aspiration, the cells were fixed with 100 μL of cold ethanol-acetone solution (95:5) per well. The plates were placed at -20° for 30 min. The plates were washed 4 times with phosphate buffered saline containing 0.05% (v/v) polyoxyethylene sorbitan monolaurate (Tween®). Thereafter, 100 μL of mAb UL99 (Advanced Biotechnologies Inc., #13-130-100) recognizing HCMV protein p28 was added to each wells and plates were incubated for 2 h at room temperature. The plates were washed four times with 200 μL of the above-noted phosphate buffered saline/Tween-20® solution. The cells were then incubated with 100 μL of sheep anti-mouse IgGγ horseradish peroxidase conjugated for 2 h at room temperature. The plates were then washed four times with 200 μL of above-noted phosphate buffered saline/Tween-20® solution. Thereafter, 100 μL of ortho phenylenediamine dihydrochloride (OPD, Gibco Canada Inc.) solution was added to each well and the plates were agitated on a microplate shaker for 30 min in the dark. Color development was monitored at 450 nm using a microplate spectrophotometer.\n(§7) The SAS program was used to calculate the % inhibition of viral replication and to generate EC50 values.\n(§8) The EC50 values obtained according to this assay method for certain thiazolylphenyl derivatives of this invention are listed in the following tables under the heading ELISA CMV."}, "HCMV (strain AD169) [3]": {"test_system": "HCMV (strain AD169)", "test": "Inhibition of HCMV replication, ELISA assay (Hs-68 cells)", "type": "cell-based, Human Cytomegalovirus (HCMV)", "details": "read-out: ELISA CMV EC50", "protocol": "as §2, §3, §4, §5, §6, §7, §8"}, "HSV-1 helicase-primase": {"target": "T1, HSV-1 helicase-primase (Human herpesvirus 1, UniProt P10189+P10236)", "T1 construct": "made in house; host or cells: Sf21 insect cells triply infected with recombinant baculoviruses (UL5, UL8, UL52)", "T1 sequence (P10192 whole entry)": "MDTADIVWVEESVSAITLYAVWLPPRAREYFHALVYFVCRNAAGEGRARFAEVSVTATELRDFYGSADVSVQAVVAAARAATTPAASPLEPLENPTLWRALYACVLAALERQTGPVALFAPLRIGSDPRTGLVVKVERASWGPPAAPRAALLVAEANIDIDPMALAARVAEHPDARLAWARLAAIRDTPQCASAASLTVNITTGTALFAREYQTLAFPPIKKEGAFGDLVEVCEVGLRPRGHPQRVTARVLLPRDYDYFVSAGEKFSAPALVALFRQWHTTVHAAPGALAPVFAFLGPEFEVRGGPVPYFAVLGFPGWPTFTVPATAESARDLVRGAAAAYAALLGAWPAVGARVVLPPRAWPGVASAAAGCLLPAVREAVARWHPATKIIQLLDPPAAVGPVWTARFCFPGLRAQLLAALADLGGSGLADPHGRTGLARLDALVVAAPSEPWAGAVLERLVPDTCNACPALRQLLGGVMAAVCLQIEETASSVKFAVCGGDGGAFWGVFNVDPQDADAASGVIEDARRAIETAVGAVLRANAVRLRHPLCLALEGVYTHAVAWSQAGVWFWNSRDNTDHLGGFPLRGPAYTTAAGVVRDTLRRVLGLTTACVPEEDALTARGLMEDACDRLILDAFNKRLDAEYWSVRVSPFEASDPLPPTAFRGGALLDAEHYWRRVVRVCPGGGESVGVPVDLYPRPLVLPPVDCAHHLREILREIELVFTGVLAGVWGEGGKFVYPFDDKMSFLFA", "T1 sequence (P10236 whole entry)": "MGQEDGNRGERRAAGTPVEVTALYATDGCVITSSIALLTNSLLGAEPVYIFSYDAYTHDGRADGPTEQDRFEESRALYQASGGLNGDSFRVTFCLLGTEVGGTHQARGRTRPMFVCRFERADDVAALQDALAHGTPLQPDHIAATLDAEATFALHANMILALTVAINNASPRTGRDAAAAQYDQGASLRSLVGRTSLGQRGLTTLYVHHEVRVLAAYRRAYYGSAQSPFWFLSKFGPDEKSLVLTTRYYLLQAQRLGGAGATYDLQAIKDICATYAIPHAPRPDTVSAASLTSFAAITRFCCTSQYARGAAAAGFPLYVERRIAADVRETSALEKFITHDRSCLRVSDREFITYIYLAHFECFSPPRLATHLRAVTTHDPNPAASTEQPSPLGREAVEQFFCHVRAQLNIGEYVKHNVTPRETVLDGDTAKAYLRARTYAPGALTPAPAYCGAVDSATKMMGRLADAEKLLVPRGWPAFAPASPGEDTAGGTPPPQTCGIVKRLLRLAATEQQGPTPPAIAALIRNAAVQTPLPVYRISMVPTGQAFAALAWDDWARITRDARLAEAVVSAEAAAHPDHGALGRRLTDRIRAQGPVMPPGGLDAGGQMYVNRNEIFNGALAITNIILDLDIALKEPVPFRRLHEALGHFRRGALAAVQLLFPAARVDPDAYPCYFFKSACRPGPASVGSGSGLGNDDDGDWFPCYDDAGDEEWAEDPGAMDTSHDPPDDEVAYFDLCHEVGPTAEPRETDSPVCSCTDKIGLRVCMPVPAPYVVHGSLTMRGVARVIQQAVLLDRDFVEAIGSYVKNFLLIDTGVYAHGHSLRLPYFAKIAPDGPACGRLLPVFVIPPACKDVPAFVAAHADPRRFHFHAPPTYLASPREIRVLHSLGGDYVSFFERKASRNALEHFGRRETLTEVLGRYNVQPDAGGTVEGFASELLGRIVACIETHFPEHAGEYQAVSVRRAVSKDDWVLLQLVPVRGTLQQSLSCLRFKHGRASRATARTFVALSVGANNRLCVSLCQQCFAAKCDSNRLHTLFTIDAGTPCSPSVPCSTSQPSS", "T1 sequence (P10189 whole entry)": "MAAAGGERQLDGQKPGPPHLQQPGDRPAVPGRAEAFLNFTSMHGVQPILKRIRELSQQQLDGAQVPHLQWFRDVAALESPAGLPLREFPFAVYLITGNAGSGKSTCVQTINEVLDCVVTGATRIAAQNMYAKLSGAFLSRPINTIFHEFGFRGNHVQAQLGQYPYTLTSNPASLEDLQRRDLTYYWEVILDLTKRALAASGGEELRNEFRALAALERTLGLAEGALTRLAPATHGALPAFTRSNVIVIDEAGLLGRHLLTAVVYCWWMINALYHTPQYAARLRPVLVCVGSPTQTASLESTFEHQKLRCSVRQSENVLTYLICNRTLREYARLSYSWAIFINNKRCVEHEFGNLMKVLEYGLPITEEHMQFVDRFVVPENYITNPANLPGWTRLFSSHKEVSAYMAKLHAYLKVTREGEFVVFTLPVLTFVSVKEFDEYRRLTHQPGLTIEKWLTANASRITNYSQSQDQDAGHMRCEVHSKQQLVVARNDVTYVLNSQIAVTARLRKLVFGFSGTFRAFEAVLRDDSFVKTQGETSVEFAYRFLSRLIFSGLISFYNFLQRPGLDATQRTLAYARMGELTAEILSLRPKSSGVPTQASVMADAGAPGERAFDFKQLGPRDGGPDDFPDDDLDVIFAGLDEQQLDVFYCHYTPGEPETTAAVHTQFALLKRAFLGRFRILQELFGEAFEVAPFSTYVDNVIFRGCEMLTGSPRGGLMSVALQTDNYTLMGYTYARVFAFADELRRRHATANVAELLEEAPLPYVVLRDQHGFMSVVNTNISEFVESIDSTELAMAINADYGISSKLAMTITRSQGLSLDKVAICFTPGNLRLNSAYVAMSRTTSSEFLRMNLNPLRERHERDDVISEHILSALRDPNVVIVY", "test": "HSV-1 DNA-dependent ATPase assay (inhibition of HSV-1 helicase-primase)", "type": "biochemical", "outline": "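ATP hydrolysis was measured as inorganic phosphate (malachite green/molybdate, 650 nm) after 20 min at 34°. Reaction: 3 μg/mL purified Sf21-expressed UL5/UL8/UL52 helicase-primase, 25 μM single-stranded M13 DNA hybridized to 68-mer, 4 mM ATP, pH 7.5 HEPES buffer, 3.3% DMSO. Net absorbance change with and without inhibitor gave DNA-dependent ATPase activity.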"}, "HSV-1 strain F or KOS": {"test_system": "HSV-1 strain F or KOS", "test": "Inhibition of herpes simplex virus (HSV-1) replication in cell culture (BHK-21 cells, glycoprotein C ELISA)", "type": "cell-based", "outline": "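Replication readout: ELISA for HSV-1 late glycoprotein C (mAb C11, peroxidase-OPD, 450 nm) on glutaraldehyde-fixed cells. Monolayers (~50,000 cells/well) were infected with strain F or KOS (MOI 0.05 PFU/cell), then incubated 24 h at 37° with compound in 2% FBS α-MEM. EC50 derived from % inhibition.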"}, "[4]": {"test": "Inhibition of HCMV replication, plaque reduction assay (PRA, Hs-68 cells)", "type": "cell-based, Human Cytomegalovirus (HCMV)", "details": "human", "outline": "(§9)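 Hs-68 monolayers (80–90% confluent) were infected with ~50 PFU HCMV AD169 for 2 h at 37°, then given compound in DMEM/5% inactivated FBS, refreshed after 4 days and kept 4 more days. Plaques were counted after formaldehyde fixation and crystal violet staining. EC50 derives from percent plaque reduction versus untreated wells.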"}, "HCMV (strain AD169) [5]": {"test_system": "HCMV (strain AD169)", "test": "Inhibition of HCMV replication, plaque reduction assay (PRA, Hs-68 cells)", "type": "cell-based, Human Cytomegalovirus (HCMV)", "details": "read-out: PRA CMV EC50", "outline": "as §9"}, "[6]": {"test_system": "HSV-1 acyclovir-resistant mutant strain dlsptk", "test": "Acyclovir-resistant HSV-1 cutaneous infection in immunodeficient nu/nu mice, strain dlsptk", "type": "in vivo, female nu/nu mice", "details": "oral gavage 100 mg/kg/day, tid for 10 days; strain dlsptk (FIG. 3)", "protocol": "as §1"}, "[7]": {"details": "Human betaherpesvirus 5, AD169, Hs68, Group 2 Table 2 entries"}, "[8]": {"details": "Group 1 Table 1 entries, read-out: Cytotoxic at this concentration (footnote *, PRA CMV)"}, "[9]": {"details": "Human betaherpesvirus 5, AD169, Hs68, Group 1 Table 1 entries"}, "[10]": {"details": "Human alphaherpesvirus 1, BHK-21, Group 1 Table 1 entries"}, "[11]": {"details": "Human betaherpesvirus 5, AD169, Hs68, Group 1 Table 2 entries"}}, "note": "pEC50, pIC50: −log10 of the molar value.", "data": [{"compound": "Nc1nc(-c2ccc(NC(=O)CN(Cc3ccccc3)C(=O)c3ccncc3)cc2)cs1", "note": "[Entry 29]", "values": [{"measurement": "ED50", "setting": "HSV-2 HG-52", "value": 60, "unit": "mg/kg"}, {"measurement": "ED50", "setting": "[1]; Human alphaherpesvirus 1, po, 240 h, read-out: ED50, cutaneous lesions", "value": "~60", "unit": "mg/kg"}]}, {"compound": "Nc1nc(-c2ccc(NC(=O)[C@H](Cc3ccccc3)NC(=O)C3CCCCC3)cc2)cs1", "note": "[Example 1]", "values": [{"measurement": "MCC at 192 h", "setting": "[2]; Group 1 Table 5 entries", "value": 14, "unit": "µM"}, {"measurement": "pEC50", "setting": "HCMV (strain AD169) [3]; Human betaherpesvirus 5, AD169, Hs68, Group 1 Table 5 entries", "value": 4.85}, {"measurement": "pIC50", "setting": "HSV-1 helicase-primase; Group 1 Table 5 entries", "value": 7.28}, {"measurement": "pEC50", "setting": "HSV-1 strain F or KOS; Human alphaherpesvirus 1, BHK-21, Group 1 Table 5 entries", "value": 7.10}]}, {"compound": "Nc1nc(-c2ccc(NC(=O)C(=O)N(Cc3ccccc3)Cc3ccccc3)cc2)cs1", "note": "[Example 2]", "values": [{"measurement": "pEC50", "setting": "HCMV (strain AD169) [3]; [7]", "value": 5.00}, {"measurement": "MCC at 192 h", "setting": "[4]; Group 2 Table 2 entries, read-out: Cytotoxic at this concentration (footnote *, PRA CMV)", "value": 12, "unit": "µM"}, {"measurement": "pEC50", "setting": "HCMV (strain AD169) [5]; [7]", "value": 4.92}, {"measurement": "pEC50", "setting": "HSV-1 strain F or KOS; Human alphaherpesvirus 1, BHK-21, Group 2 Table 2 entries", "value": 6.11}]}, {"compound": "Nc1nc(-c2ccc(NC(=O)NCCc3ccccn3)cc2)cs1", "note": "[Example 3]", "values": [{"measurement": "pIC50", "setting": "HSV-1 helicase-primase; Group 2 Table 1 entries", "value": 5.28}, {"measurement": "MCC at 192 h", "setting": "[4]; Group 2 Table 1 entries, read-out: Cytotoxic at this concentration (footnote *, PRA CMV)", "value": 93, "unit": "µM"}, {"measurement": "pEC50", "setting": "HCMV (strain AD169) [5]; Human betaherpesvirus 5, AD169, Hs68, Group 2 Table 1 entries", "value": "< 4.03"}, {"measurement": "pEC50", "setting": "HSV-1 strain F or KOS; Human alphaherpesvirus 1, BHK-21, Group 2 Table 1 entries", "value": 5.44}]}, {"compound": "Nc1nc(-c2ccc(NC(=O)CNCc3ccccn3)cc2)cs1", "note": "[Example 12]", "values": [{"measurement": "pIC50", "setting": "HSV-1 helicase-primase; Group 1 Table 1 entries", "value": 5.10}, {"measurement": "MCC at 192 h", "setting": "[4]; [8]", "value": 84, "unit": "µM"}, {"measurement": "pEC50", "setting": "HCMV (strain AD169) [5]; [9]", "value": 4.08}, {"measurement": "pEC50", "setting": "HSV-1 strain F or KOS; [10]", "value": 5.82}]}, {"compound": "CC(C)(C)OC(=O)N(CCC(=O)Nc1ccc(-c2csc(N)n2)cc1)C1CCc2ccccc21", "note": "(centres unmarked) [Example 13]", "values": [{"measurement": "pEC50", "setting": "HCMV (strain AD169) [3]; [11]", "value": 4.43}, {"measurement": "MCC at 192 h", "setting": "[4]; Group 1 Table 2 entries, read-out: Cytotoxic at this concentration (footnote, PRA CMV)", "value": 9, "unit": "µM"}, {"measurement": "pEC50", "setting": "HCMV (strain AD169) [5]; [11]", "value": 5.05}, {"measurement": "pEC50", "setting": "HSV-1 strain F or KOS; Human alphaherpesvirus 1, BHK-21, Group 1 Table 2 entries", "value": 5.47}]}, {"compound": "CCCC(CCC)N(CC(=O)Nc1ccc(-c2csc(N)n2)cc1)C(=O)OC(C)(C)C", "note": "[Example 111]", "values": [{"measurement": "MCC at 192 h", "setting": "[2]; Group 1 Table 1 entries", "value": 4, "unit": "µM"}, {"measurement": "pEC50", "setting": "HCMV (strain AD169) [3]; [9]", "value": 5.40}, {"measurement": "pIC50", "setting": "HSV-1 helicase-primase; Group 1 Table 1 entries", "value": 6.43}, {"measurement": "pEC50", "setting": "HSV-1 strain F or KOS; [10]", "value": 6.62}]}, {"compound": "Cc1ccccc1CN(CC(=O)Nc1ccc(-c2csc(N)n2)cc1)C(=O)Cc1ccccn1", "note": "[Example 127]", "values": [{"measurement": "pEC50", "setting": "HCMV (strain AD169) [3]; [9]", "value": 5.06}, {"measurement": "pIC50", "setting": "HSV-1 helicase-primase; Group 1 Table 1 entries", "value": 6.00}, {"measurement": "MCC at 192 h", "setting": "[4]; [8]", "value": 25, "unit": "µM"}, {"measurement": "pEC50", "setting": "HCMV (strain AD169) [5]; [9]", "value": 4.60}]}, {"compound": "Nc1nc2c(ncn2COCCO)c(=O)[nH]1", "note": "[acyclovir, reference compound]", "values": [{"measurement": "effect on cutaneous lesions", "setting": "[6]", "value": "no effect on cutaneous lesions"}, {"measurement": "effect on cutaneous lesions", "setting": "[1]; oral gavage 100 mg/kg/day, tid for 10 days, strain PAAr 5 (FIG. 1)", "value": "no effect on cutaneous lesions"}]}]}
